Measured values taken from patent US20190175528A1, “INHIBITION OF BIOFILM ORGANISMS” (NovaBiotics Limited, priority 2009, published 2019).
Numbered stars: 1 amine (or outer) side, 2 acyl side, 3 side chain; on linkers, the order of the positions; unused ones are H or OH. Ends that are not written are not given here. Peptide text beside a SMILES is read from it. Cysteamide = C(CS[*:3])N[*:1]

Columns and labels:
S. aureus ATCC25923 [1] = type: cell-based, Staphylococcus aureus; conditions: ATCC25923, 24 h
Experimental: (§1) The bacterial inoculum was established by the dilution method from actively-growing cultures in Mueller-Hinton broth, standardized with 0.5 McFarland turbidity standard as described in the CLSI method M26-A.
(§2) To determine the prevention of biofilm formation, both the bacterial inoculum and the antimicrobial agents were added simultaneously to the plates. The plates were incubated at 37° C. for 24 h and the optical density was read at 625 nm on a microtitre plate reader (BioTek Powerwave XS, Winooski, USA). The MIC was obtained as the lowest concentration of antimicrobial showing total inhibition of bacterial growth.

S. aureus ATCC25923 [2] = conditions: ATCC25923, pH 7
[3] = system: P. aeruginosa ATCC BAA-47; conditions: for MBC at pH5.5, P. aeruginosa ATCCBAA-47 / MBC pH5.5, 320 mM NaCl, P. aeruginosa ATCCBAA-47: ATCC BAA-47, pH 5.5; for MBC following MIC at pH 7, P. aeruginosa ATCCBAA-47: ATCC BAA-47, pH 7
P. aeruginosa DSMZ1128 [4] = conditions: DSMZ1128, pH 7
P. aeruginosa DSMZ1299 [5] = type: cell-based, Pseudomonas aeruginosa; conditions: for MIC at pH 7, P. aeruginosa D5MZ1299: DSMZ1299, 24 h
Experimental: as §1, §2

P. aeruginosa DSMZ1128 [6] = type: cell-based, Pseudomonas aeruginosa; conditions: DSMZ1128, 24 h
Experimental: as §1, §2

S. epidermidis ATCC12228 [7] = conditions: ATCC12228, pH 7
[8] = system: S. aureus DSM 11729 (MRSA); conditions: for MBC at pH5.5, S. aureus 11729 / MBC pH5.5, 320 mM NaCl, S. aureus 11729: DSM 11729, pH 5.5; for MBC following MIC at pH 7, S. aureus DSMZ11729: DSM 11729, pH 7
[9] = system: P. aeruginosa ATCC BAA-47; test: microbe, parasite or virus in culture; type: cell-based, Pseudomonas aeruginosa; conditions: ATCC BAA-47, 24 h; for MIC pH5.5, 320 mM NaCl, P. aeruginosa ATCCBAA-47 / MIC pH5.5, P. aeruginosa ATCCBAA-47: pH 5.5
Experimental: as §1
(§3) To determine the prevention of biofilm formation, both the bacterial inoculum and the antimicrobial agents were added simultaneously to the plates. The plates were incubated at 37° C. for 24 h and the optical density was read at 625 nm on a microtitre plate reader (BioTek Powerwave XS, Winooski, USA). The MIC was obtained as the lowest concentration of antimicrobial showing total inhibition of bacterial growth. […]
(§4) FIC=MICA[combination]/MICA[alone]+MICB[combination]/MICB[alone] […]
(§5) In order to assess for the prevention of biofilm formation by both Gram-positive and Gram-negative bacteria, the bacterial inoculum and antimicrobial agents were added simultaneously in the plates. The range of concentrations of antimicrobial agents was 0-500 μg/ml NP108 and 0-320 μg/ml cysteamine against the Gram-negative bacteria P. aeruginosa ATCC BAA-47 and 0-1000 μg/ml NP108 and 0-320 μg/ml cysteamine against the Gram-positive MRSA.

S. epidermidis ATCC12228 [10] = type: cell-based, Staphylococcus epidermidis; conditions: ATCC12228, 24 h
Experimental: as §1, §2

[11] = system: S. aureus DSM 11729 (MRSA); test: microbe, parasite or virus in culture; type: cell-based, Staphylococcus aureus; conditions: DSM 11729, 24 h; for MIC pH5.5, 320 mM NaCl, S. aureus 11729 / MIC pH5.5, S. aureus 11729: pH 5.5
Experimental: as §1, §3, §4, §5

P. aeruginosa DSMZ1299 [12] = conditions: DSMZ1299, pH 7

| Compound | MIC at pH 7, S. aureus ATCC25923 (S. aureus ATCC25923 [1]) | MBC following MIC at pH 7, S. aureus ATCC25923 (S. aureus ATCC25923 [2]) | MBC at pH5.5, P. aeruginosa ATCCBAA-47 [3] | MBC pH5.5, 320 mM NaCl, P. aeruginosa ATCCBAA-47 [3] | MBC following MIC at pH 7, P. aeruginosa ATCCBAA-47 [3] | MBC following MIC at pH 7, P. aeruginosa DSMZ1128 (P. aeruginosa DSMZ1128 [4]) | MIC at pH 7, P. aeruginosa D5MZ1299 (P. aeruginosa DSMZ1299 [5]) | MIC at pH 7, P. aeruginosa DSMZ1128 (P. aeruginosa DSMZ1128 [6]) | MBC following MIC at pH 7, S. epidermidis ATCC12228 (S. epidermidis ATCC12228 [7]) | MBC at pH5.5, S. aureus 11729 [8] | MBC pH5.5, 320 mM NaCl, S. aureus 11729 [8] | MBC following MIC at pH 7, S. aureus DSMZ11729 [8] | MIC pH5.5, 320 mM NaCl, P. aeruginosa ATCCBAA-47 [9] | MIC pH5.5, P. aeruginosa ATCCBAA-47 [9] | MIC at pH 7, P. aeruginosa ATCCBAA-47 [9] | MIC at pH 7, S. epidermidis ATCC12228 (S. epidermidis ATCC12228 [10]) | MIC pH5.5, 320 mM NaCl, S. aureus 11729 [11] | MIC pH5.5, S. aureus 11729 [11] | MIC at pH 7, S. aureus DSMZ11729 [11] | MBC following MIC at pH 7, P. aeruginosa DSMZ1299 (P. aeruginosa DSMZ1299 [12]) | also measured |
| --- | --- | --- | --- | --- | --- | --- | --- | --- | --- | --- | --- | --- | --- | --- | --- | --- | --- | --- | --- | --- | --- |
| N=C(N)NCCC[C@H](NC(=O)[C@H](CCCNC(=N)N)NC(=O)[C@H](CCCNC(=N)N)NC(=O)[C@H](CCCNC(=N)N)NC(=O)[C@@H](N)CCCNC(=N)N)C(=O)NCCS [NP457, RRRRR-cysteamine] (H-RRRRR-Cysteamide; N-terminus assumed) | 125 μg/ml | 62.5 μg/ml | >500 μg/ml | >500 μg/ml | >500 μg/ml | >500 μg/ml | >500 μg/ml | >500 μg/ml | 125 (2) μg/ml | >500 μg/ml | >500 μg/ml | 125 (2) μg/ml | >500 μg/ml | >500 μg/ml | 250 μg/ml | 31.25 μg/ml | >500 μg/ml | >500 μg/ml | 125 μg/ml | >500 μg/ml | Exp#3, P. aeruginosa DSMZ1299 (quantity not clearly headed) (P. aeruginosa DSMZ1299 [5]): >500 µg/mL |
| HHPRRKPRRPKRRHH [NP441, HHPRRKPRRPKRRHH] | >500 μg/ml | >500 μg/ml | >500 μg/ml | >500 μg/ml | >500 μg/ml | >500 μg/ml | >500 μg/ml | >500 μg/ml | >500 μg/ml | >500 μg/ml | >500 μg/ml | >500 μg/ml | >500 μg/ml | >500 μg/ml | >500 μg/ml | >500 μg/ml | >500 μg/ml | >500 μg/ml | >500 μg/ml | >500 μg/ml | Exp#3, P. aeruginosa DSMZ1299 (quantity not clearly headed) (P. aeruginosa DSMZ1299 [5]): >500 µg/mL |
| KKFPWRLRLRYGRR [NP445, KKFPWRLRLRYGRR] | 500 μg/ml | >500 μg/ml | >500 μg/ml | >500 μg/ml | 250 μg/ml | 250 μg/ml | 31.25 μg/ml | 62.5 μg/ml | 62.5 μg/ml | >500 μg/ml | >500 μg/ml | >500 μg/ml | >500 μg/ml | >500 μg/ml | 31.25 μg/ml | <7.8 μg/ml | >500 μg/ml | >500 μg/ml | 500 μg/ml | 125 μg/ml | – |
